# Experimental data: patent US4987131A, “4H-triazolo[4,3-a][1,4]benzodiazepines” (Roussel Uclaf, priority 1985, dated 1991)
# How the values were obtained:
# [1] = test system: arthritis induced by carrageenin in rats; assay: Anti-inflammatory activity: arthritis induced by carrageenin; type: in vivo; settings: Rattus norvegicus, po; male rats, orally, simultaneously with carrageenin in the tibio-tarsal articulation, paw volume; read-out: DA50, dose giving a decrease in the oedema of 50%
# Protocol: C. Anti-inflammatory activity was determined by the test for arthritis induced by carrageenin in rats and 0.5 ml of a sterile suspension at 1% of carrageenin was administered in the tibio-tarsal articulation of a back paw in male rats weighing from 130 to 150 g. Simultaneously, the product of Example 1 was orally administered in a suspension of carboxymethylcellulose at 0.25% and of Tween at 0.02%. The volume of the paw was measured before the administration, then 2 hours, 4 hours, 6 hours, 8 hours and 24 hours afterwards. The intensity of the inflammation was at its highest 4 to 6 hours after the injection of carrageenin and the difference in volume of the paws of the treated animals and the control animals was evidence of the anti-inflammatory action of the medicament. The DA50 was determined, which was the dose which enabled a decrease in the oedema of 50% to be obtained.
# [2] = biological target: T1, cyclo-oxygenase contained in a microsomal preparation of seminal vesicles of a bull (Bos taurus, UniProt O62664); assay: Action on biosynthesis of prostaglandins in vitro; type: biochemical; settings: arachidonic acid 15×10^-6 M, incubated 30 minutes at 37° C., radioimmuno test; read-out: CI50, inhibiting activity calculated on the sum of PGE2 and PGF2 alpha
# T1 construct: cyclo-oxygenase contained in a microsomal preparation of seminal vesicles of a bull; from tissue; host or cells: bull seminal vesicles, microsomal preparation
# T1 sequence (O62664 25-600): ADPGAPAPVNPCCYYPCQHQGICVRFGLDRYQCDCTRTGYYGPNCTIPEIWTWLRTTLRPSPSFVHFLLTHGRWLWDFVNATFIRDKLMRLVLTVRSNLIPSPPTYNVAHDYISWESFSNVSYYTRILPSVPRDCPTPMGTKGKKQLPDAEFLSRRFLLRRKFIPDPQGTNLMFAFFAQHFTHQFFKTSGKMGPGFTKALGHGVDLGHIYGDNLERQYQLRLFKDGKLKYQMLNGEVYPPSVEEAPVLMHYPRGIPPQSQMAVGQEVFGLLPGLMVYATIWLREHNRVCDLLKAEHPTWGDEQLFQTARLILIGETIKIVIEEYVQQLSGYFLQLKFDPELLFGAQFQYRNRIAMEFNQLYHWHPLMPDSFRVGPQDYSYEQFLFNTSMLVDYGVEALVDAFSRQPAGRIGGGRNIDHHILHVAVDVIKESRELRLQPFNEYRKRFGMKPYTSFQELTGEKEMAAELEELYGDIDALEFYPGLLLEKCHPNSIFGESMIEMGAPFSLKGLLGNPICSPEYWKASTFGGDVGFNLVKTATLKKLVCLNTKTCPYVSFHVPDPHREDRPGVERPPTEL
# Protocol: A. Action on biosynthesis of prostaglandins in vitro.
# Arachidonic acid is converted into prostaglandins (PGs) of series 2 by a cyclo-oxygenase contained in a microsomal preparation of seminal vesicles of a bull carried out according to the Tagekuchi et al method [Mechanism of prostaglandin biosynthesis. I characterization and essay of bovine prostaglandin synthetase. Biochemistry, 1971, 10, 2372]. The precursor, at […] of 15×10^-6 M, was incubated for 30 minutes at 37° C. in the presence of a fixed concentration in proteins of the preparation of seminal vesicles and of the product of Example 1. After blocking the reaction by immersion in boiling water for one minute, then centrifuging, the prostaglandins were evaluated by radioimmuno test inspired by that of Dray et al [Radioimmunoessay of prostaglandins F, E1 and E2 in human plasma. European J. Clin. Invest., 1975 5, 311]. This enabled the PGE2 and PGF2 alpha to be evaluated specifically and the inhibiting activity of the product (CI50) is calculated on the sum of these two prostaglandins. The CI50 found was 2×10^ -6 M.
# [3] = test system: stretchings induced by acetic acid in mice; assay: Analgesic activity: stretchings induced by acetic acid; type: in vivo; settings: Mus musculus, po, 0.25 h, orally half an hour before i.p. acetic acid 100 mg/kg, observation 15 minutes, read-out: DA50, dose giving a decrease of 50% in the number of stretchings
# Protocol: B. Study of analgesic activity
# The test used was stretchings induced by acetic acid described by R. Koster et al [Fed. Proc. 1959, 1B 412] according to which the intraperitoneal injection of acetic acid induces in mice repeated stretchings and torsional movements which can persist for more than 6 hours. Analgesics prevent or decrease this syndrome which can considered as the externalization of a diffuse abdominal pain. The acetic acid was administered at a dose of 100 mg/kg or 1 ml of a 1% aqueous solution per 100 g of body weight and the compound of Example 1 was orally administered half an hour before the injection of acetic acid, the mice having been without food for 7 hours. The stretchings were observed and counted for each mouse for a period of observation of 15 minutes and the results were expressed as active dose 50 which is the dose which enabled a decrease of 50% to be obtained in the number of stretchings in comparison with the control animals. The DA50 found was 4 mg/kg.
smiles,measurement,setting,value
"COc1ccc(-c2nnc3n2-c2ccccc2C(C)=NC3C)cc1 (stereo not drawn) [Example 1, 4,6-dimethyl-1-(4-methoxyphenyl)-4H-1,2,4-triazolo[4,3-a][1,4]benzodiazepine]",ED50,[1],50 mg/kg
same,IC50,[2],2000 nM
same,ED50,[3],4 mg/kg
